# Laboratory results published in patent US7078225B2, “Method for enzymatically producing an optically active cyanohydrin” (Nippon Shokubai Co., Ltd., priority 2000, dated 2006).
# System: (R)-hydroxynitrile lyase
# Experiment: Effect of reaction inhibitor in the aldehyde on enzymatic synthesis of (R)-2-chloromandelonitrile (conversion by HPLC after five hours)
# Format: biochemical, almond (Prunus amygdalus)
# Conditions: 1 M aldehyde, 1.5 M prussic acid, immobilized enzyme 600 units, t-butyl methyl ether saturated with citrate buffer pH 5.5, five hours
# Experimental: 2-chlorobenzaldehyde containing undetectable 2-chlorobenzoic acid (reaction inhibitor) was dissolved in t-butyl methyl ether saturated with 0.15 M citrate buffer (pH 5.5) to prepare a 1 M solution of 2-chlorobenzaldehyde. To this solution, 2-chlorobenzoic acid was added in different amounts to prepare aldehyde solutions of varying 2-chlorobenzoic acid contents.
# Immobilized (R)-hydroxynitrile lyase (600 units) was introduced into 5 mil of each solution, and prussic acid was then added to reach 1.5 M, followed by synthesis of (R)-2-chloromandelonitrile. Five hours after initiation of the reaction, an aliquot of the reaction mixture was sampled to measure the conversion ratio of aldehyde by HPLC.
structure (smiles),measurement,setting,value
O=C(O)c1ccccc1Cl [2-chlorobenzoic acid],inhibition of the enzyme reaction,0.5 wt % 2-chlorobenzoic acid added to 2-chlorobenzaldehyde,about 30%
same,inhibition of the enzyme reaction,1.1 wt % 2-chlorobenzoic acid added to 2-chlorobenzaldehyde,about 50%
